Test results as given in PMC6468648, “The Flavonoid Metabolite 2,4,6-Trihydroxybenzoic Acid Is a CDK Inhibitor and an Anti-Proliferative Agent: A Potential Role in Cancer Prevention” (Cancers, 2019).

Columns and labels:
Format in all cases: biochemical
CDK1 = molecular target: T1, CDK1 (Homo sapiens, UniProt P06493); experiment: in vitro kinase assay, […]-ATP ([…] ATP), H1 histone substrate, SDS-PAGE autoradiography
T1 construct: recombinant CDK1/Cyclin B1 (SignalChem); with Cyclin B1

CDK2 = molecular target: T2, CDK2 (Homo sapiens, UniProt P24941); experiment: as above
T2 construct: recombinant CDK2/Cyclin A2 (SignalChem); with Cyclin A2

CDK4 = molecular target: T3, CDK4 (Homo sapiens, UniProt P11802); experiment: in vitro kinase assay, […]-ATP ([…] ATP), retinoblastoma (C-term) substrate, SDS-PAGE autoradiography
T3 construct: recombinant CDK4/Cyclin D1 (SignalChem); with Cyclin D1
T3 sequence (P11802 2-303): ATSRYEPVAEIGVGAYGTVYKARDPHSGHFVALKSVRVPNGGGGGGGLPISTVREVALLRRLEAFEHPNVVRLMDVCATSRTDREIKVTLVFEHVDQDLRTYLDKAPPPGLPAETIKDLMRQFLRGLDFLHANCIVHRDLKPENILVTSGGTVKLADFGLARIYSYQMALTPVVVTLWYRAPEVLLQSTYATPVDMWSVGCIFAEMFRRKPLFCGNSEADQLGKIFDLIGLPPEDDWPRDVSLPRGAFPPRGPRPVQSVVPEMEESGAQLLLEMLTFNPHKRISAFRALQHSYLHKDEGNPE
T3 sequence (P24385 whole entry partner): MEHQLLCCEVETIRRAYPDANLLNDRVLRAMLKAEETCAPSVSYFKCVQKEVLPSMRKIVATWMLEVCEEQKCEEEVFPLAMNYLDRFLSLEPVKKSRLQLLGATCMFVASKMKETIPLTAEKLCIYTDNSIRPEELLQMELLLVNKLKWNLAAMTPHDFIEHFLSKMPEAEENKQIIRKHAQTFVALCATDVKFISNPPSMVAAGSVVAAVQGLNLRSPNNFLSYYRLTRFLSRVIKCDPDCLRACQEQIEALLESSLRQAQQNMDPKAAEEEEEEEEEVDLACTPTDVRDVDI

T1 sequence (P06493 whole entry): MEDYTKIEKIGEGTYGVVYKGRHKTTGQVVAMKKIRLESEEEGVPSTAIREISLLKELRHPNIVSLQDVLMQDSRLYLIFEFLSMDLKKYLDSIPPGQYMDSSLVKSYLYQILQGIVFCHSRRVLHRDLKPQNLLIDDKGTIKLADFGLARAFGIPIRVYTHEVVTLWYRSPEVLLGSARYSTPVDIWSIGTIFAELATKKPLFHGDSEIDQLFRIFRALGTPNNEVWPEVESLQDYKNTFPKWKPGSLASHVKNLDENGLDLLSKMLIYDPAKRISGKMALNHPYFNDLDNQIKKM
T1 sequence (P14635 whole entry partner): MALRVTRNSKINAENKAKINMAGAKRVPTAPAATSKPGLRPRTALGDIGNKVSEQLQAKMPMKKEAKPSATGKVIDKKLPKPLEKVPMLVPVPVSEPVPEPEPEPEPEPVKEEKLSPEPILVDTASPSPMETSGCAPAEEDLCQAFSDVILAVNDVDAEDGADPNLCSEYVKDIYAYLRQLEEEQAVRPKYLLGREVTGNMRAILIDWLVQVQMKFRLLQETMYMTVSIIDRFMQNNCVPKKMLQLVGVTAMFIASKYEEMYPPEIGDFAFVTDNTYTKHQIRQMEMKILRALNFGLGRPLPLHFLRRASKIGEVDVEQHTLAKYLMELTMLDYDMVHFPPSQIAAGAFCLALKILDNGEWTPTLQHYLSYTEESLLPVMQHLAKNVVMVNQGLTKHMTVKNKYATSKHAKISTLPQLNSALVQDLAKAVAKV

SMILES: O=C(O)c1c(O)cc(O)cc1O [2,4,6-THBA, 2,4,6-trihydroxybenzoic acid]
- IC50 (CDK1): 580 ± 57 µM
- IC50 (CDK2): 262 ± 29 µM
- IC50 (CDK4): 403 ± 63 µM
